{"source": "ChEMBL document CHEMBL5727479", "about": "“Fused heteroaryl derivatives as orexin receptor antagonists” (2020)", "molecular_target": "T1, Orexin receptor type 2 (Homo sapiens, UniProt O43614)", "T1 sequence (O43614 whole entry)": "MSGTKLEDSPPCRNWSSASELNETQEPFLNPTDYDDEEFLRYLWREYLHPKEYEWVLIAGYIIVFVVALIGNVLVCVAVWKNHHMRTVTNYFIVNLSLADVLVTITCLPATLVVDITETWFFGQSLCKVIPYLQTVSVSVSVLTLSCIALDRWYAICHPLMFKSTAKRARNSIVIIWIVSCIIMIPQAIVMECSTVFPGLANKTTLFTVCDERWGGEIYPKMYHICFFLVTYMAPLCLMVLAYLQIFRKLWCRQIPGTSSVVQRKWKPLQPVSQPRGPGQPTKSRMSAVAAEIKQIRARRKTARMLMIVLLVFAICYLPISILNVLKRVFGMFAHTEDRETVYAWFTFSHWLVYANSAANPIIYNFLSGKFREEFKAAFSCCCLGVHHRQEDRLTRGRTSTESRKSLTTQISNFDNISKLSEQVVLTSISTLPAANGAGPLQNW", "assay": "FLIPR Assay: In a typical experiment the OX1 and OX2 receptor antagonistic activity of the compounds of the present invention was determined in accordance with the following experimental method. For intracellular calcium measurements, Chinese hamster ovary (CHO) cells expressing the rat orexin-1 receptor or the human orexin-2 receptor, are grown in Iscove's modified DMEM containing 2 mM L-glutamine, […], 1% hypoxanthine-thymidine supplement, 100 U/ml penicillin, 100 μg/ml streptomycin and 10% heat-inactivated fetal calf serum (FCS). The cells are seeded at 20,000 cells/well into Becton-Dickinson black 384-well clear bottom sterile plates coated with poly-D-lysine. All reagents are from GIBCO-Invitrogen Corp. The seeded plates are incubated overnight at 37° C. and 5% CO2. Ala-6,12 human orexin-A as the agonist is prepared as a 1 mM stock solution in 1% bovine serum albumin (BSA) and diluted in assay buffer (HBSS containing 20 mM HEPES, 0.1% BSA and 2.5 mM probenecid, pH7.4) for use in the assay at a final concentration of 70 pM. Test compounds are prepared as 10 mM stock solution in DMSO, then diluted in 384-well plates, first in DMSO, then assay buffer. On the day of the assay, cells are washed 3 times with 100 μl assay buffer and then incubated for 60 min (37° C., 5% CO2) in 60 μl assay buffer containing […] Fluo-4AM ester, 0.02% pluronic acid, and 1% BSA.", "type": "cell-based", "note": "pIC50: −log10 of the molar value."}
{"smiles": "C[C@@H]1CC[C@@H](Sc2nccn3nccc23)CN1C(=O)c1ccccc1-n1nccn1", "values": [{"measurement": "pIC50", "result": 7.80}]}
